The test system of the data set is mouse and human plasma stability, LC/MS/MS, 180 min. The data set is described as follows: plasma degradation of screening hits, two species – biochemical, mouse and human plasma, ADME assay for GPR30 and estrogen receptor ligands, late-stage follow-up (AID 623907). Particulars: at 1 µM, stronger effect = higher value.

On to `COc1cc([N+](=O)[O-])cc2c1NC(C1CC=CCC1)C1CC=CC21` (configuration not stated), for which the percent remaining was 94.5%. Further, the percent remaining (measured here: human plasma stability, 180 min) amounted to 100%.

Source of the values: PubChem BioAssay AID623907 (NMMLSC, 2012).
